The NIST ThermoML archive (doi:10.1016/j.fluid.2012.02.005)
± gives the expanded uncertainty stated by the source.

conditions: Liquid; Ebulliometric method (Recirculating still)

SMILES | Normal boiling temperature [°C]
CC(C)=C(C)C [2,3-dimethyl-2-butene] | 73.00 ± 0.2
CCC(C)C [2-methylbutane] | 28.00 ± 0.21
Cc1ccsc1 [3-methylthiophene] | 115.20 ± 0.2
CCCCCCC [heptane] | 98.49 ± 0.2
Cc1ccccc1 [toluene] | 110.54 ± 0.2
